Measurements: patent US12594292B2, “Antiviral prodrugs, intermediate-and long-acting formulations and methods” (priority 2022, dated 2026)

Tested on: SARS-CoV-2 isolate USA-WA1/2020
Assay: SARS-CoV-2 infection in Vero E6 cells, qRT-PCR (Example 7)
Type: cell-based

Q: With `CCCCCCCCCCCCCCCCCCOC[C@H](COP(=O)(O)OC[C@H]1O[C@@](C#N)(c2ccc3c(N)ncnn23)[C@H](O)[C@@H]1O)OCc1ccccc1` [Compound 15d, 1-O-octadecyl-2-O-benzyl-sn-glyceryl-phospho-RVn] as the compound, how does the Selectivity (CC50/EC50, Vero E6 cells) read?
A: 699

Q: And the EC50 (Vero E6 cells, MOI 0.01, 48 hours)?
A: 140 nM

Q: What about the EC90 (Vero E6 cells, MOI 0.01, 48 hours, listed as ODBG-P-RVn, 15d) of the same compound?
A: 160 nM
